Data published in patent US8236827B2, “Compounds” (Spear Therapeutics Limited, priority 2009, dated 2012).

Columns and labels:
wild-type CHO cells = test: Cytotoxicity (MTS) in wild-type CHO cells; type: cell-based, Chinese Hamster; conditions: for IC50: Cricetulus griseus, CHO, 96 h, MTS
Procedure: CHO cells: Chinese Hamster Ovary (CHO) DUKXB11 cells were grown under standard cell culture conditions in α-MEM supplemented with 10% FCS, 1 unit/ml each of hypoxanthine and thymidine, and penicillin (100 IU/ml) and streptomycin (100 μg/ml) according to literature methods (Ding S, et al., Arch. Biochem. Biophys., 348: 403-410, 1997, the contents of which are incorporated herein by reference). Cells were grown at 37° C. in a humidified atmosphere plus 5% CO2.
(§1) A single cell suspension of CHO, CHO/CYP1A1 or CHO/CYP1B1 in 100 μl of the required cell culture medium was seeded onto 96-well plates at a cell density of 1500 cells per well and placed in an incubator for 24 h at 37° C. The stock solution of test compound in DMSO was then added to give a concentration range of 100, 30, 10, 3, 1, 0.3, 0.1, 0.03, 0.01, 0.003, 0.001, 0 μM. The final concentration of DMSO 0.2% was found not to affect the growth characteristics of the various CHO cell lines. The cells were incubated with the test compound for 96 h after which all the medium was aspirated and replaced with 100 μl of fresh medium to compensate for the loss of medium due to evaporation. The cells were incubated with 20 μl of the MTS assay reagent for 1.5 h and the absorbance per well at 510 nm measured using a plate reader. The mean absorbance and standard deviation for each test compound concentration was calculated versus a series of controls including (a) cells plus medium, (b) cell plus medium containing DMSO 0.2%, (c) medium alone, and (d) medium containing DMSO 0.2% and a range of test compound concentrations from 0 to 100 μM.
(§2) The MTS assay is a homogeneous, colorimetric method for determining the number of viable cells in proliferation, cytotoxicity or chemosensitivity assays (Cali J J, et al., “Luminescence-Based Methods and Probes for Measuring Cytochrome P450 Activity”, pp. 1-29. Promega Corporation, United States, 2004, the contents of which are incorporated herein by reference). The assay is composed of solutions of tetrazolium compound [3-(4,5-dimethylthiazol-2-yl)-5-(3-carboxymethoxyphenyl)-2-(4-sulfophenyl)-2H-tetrazolium, inner salt; MTS] and an electron coupling reagent (phenazine methosulfate) PMS. MTS is bioreduced by cells into a formazan product that is soluble in tissue culture medium. The absorbance of the formazan product at 510 nm can be directly measured from 96-well assay plates. The quantity of formazan product as measured by the amount of absorbance at 490 or 510 nm is directly proportional to the number of living cells in culture.

CHO/CYP1A1 cells = test: Cytotoxicity (MTS) in CHO/CYP1A1 cells; type: cell-based, Chinese Hamster
Procedure: (§3) CHO/CYP1A1 and CHO/CYP1B1 cells: CHO cells containing recombinant CYP1A1 and recombinant CYP1B1 co-expressing P450 reductase, namely (CHO/CYP1A1) and (CHO/CYP1B1) respectively, were cultured using the standard culture medium for CHO cells supplemented with 0.4 mg/ml G418 disulfate salt and 0.3 μM methotrexate (Sigma/Aldrich Co., Gillingham, Dorset, UK) according to methods described in the literature (ibid.) Cells were grown at 37° C. in a humidified atmosphere plus 5% CO2.
as §1, §2

[1] = Cytotoxicity (MTS) in CHO/CYP1A1 cells; type: cell-based, Chinese Hamster; conditions: Chinese hamster; 96 h, MTS
Procedure: as §3, §1, §2

CHO/CYP1B1 cells = test: Cytotoxicity (MTS) in CHO/CYP1B1 cells; type: cell-based, Chinese Hamster
Procedure: as §3, §1, §2

[2] = Cytotoxicity (MTS) in CHO/CYP1B1 cells; type: cell-based, Chinese Hamster; conditions: Chinese hamster
Procedure: as §3, §1, §2

CYP3A5 = CYP3A5 (Homo sapiens, UniProt P20815); test: CYP phenotyping, metabolic stability; type: in vitro ADME; conditions: CYP3A5 (10 pm/mL)
Sequence of CYP3A5 (P20815 whole entry, species assumed): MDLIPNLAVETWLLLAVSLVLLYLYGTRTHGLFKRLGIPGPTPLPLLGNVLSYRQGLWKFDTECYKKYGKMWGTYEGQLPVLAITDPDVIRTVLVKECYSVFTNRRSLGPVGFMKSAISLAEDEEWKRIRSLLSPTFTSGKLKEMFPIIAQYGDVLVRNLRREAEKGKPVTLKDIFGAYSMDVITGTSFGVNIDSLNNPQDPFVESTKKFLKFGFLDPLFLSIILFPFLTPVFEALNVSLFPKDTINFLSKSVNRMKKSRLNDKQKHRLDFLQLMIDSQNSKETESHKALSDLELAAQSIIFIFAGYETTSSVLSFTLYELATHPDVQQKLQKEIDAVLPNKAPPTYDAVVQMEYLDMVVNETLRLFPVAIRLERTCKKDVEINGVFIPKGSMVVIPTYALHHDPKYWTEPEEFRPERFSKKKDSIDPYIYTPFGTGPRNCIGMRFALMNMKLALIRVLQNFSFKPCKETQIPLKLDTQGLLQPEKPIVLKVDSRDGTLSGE
Procedure: (§4) As mentioned above, a feature of the compounds of the invention is their metabolism by CYP1B1 which is expressed at high frequency in a wide range of human cancers of different histogenetic types, but not in normal tissues. […] Compounds V and II were exposed to a panel of six CYPs (see Table 5 below).
(§5) CYP metabolism studies were performed by Cerep Laboratories (Redmond, Wash., USA). Compounds were screened in duplicate at 1 μM in the presence of CYP enzyme, NADP (1.3 mM), D-Glucose-6-phosphate (3.3 mM) and Glucose-6-phosphate dehydrogenase. Following incubation at 0 and 60 minutes, parent compound levels were determined using standard HPLC/MS/MS procedures. The results are expressed as percent parent compound remaining after 60 minutes.

CSK = CSK (Homo sapiens, UniProt P41240); test: Cerep kinase screen; type: biochemical; conditions: read-out: % Inhibition of Control
Sequence of CSK (P41240 whole entry, species assumed): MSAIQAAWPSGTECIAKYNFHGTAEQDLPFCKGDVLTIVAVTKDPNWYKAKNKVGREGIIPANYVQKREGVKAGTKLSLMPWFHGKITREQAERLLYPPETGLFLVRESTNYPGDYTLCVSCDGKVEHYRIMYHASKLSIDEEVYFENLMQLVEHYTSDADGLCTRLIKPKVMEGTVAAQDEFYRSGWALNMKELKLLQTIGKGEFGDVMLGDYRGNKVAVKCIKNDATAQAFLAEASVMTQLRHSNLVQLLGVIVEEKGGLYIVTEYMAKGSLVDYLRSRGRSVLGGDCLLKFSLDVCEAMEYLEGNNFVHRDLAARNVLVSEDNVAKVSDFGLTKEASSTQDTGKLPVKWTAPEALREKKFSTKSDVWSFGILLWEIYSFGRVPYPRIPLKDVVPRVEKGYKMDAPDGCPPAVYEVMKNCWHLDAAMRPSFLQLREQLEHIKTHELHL
Procedure: (§6) Kinase screening was performed by Cerep Laboratories (Celle l′Evescault, France). Compounds were screened in duplicate at a single concentration (10 μM). The results, set forth in Table 4 below, are expressed as percent inhibition of control specific activity: {100−[(measured specific activity/control specific activity)×100]} obtained in the presence of Compound XI and Compound V. ATP concentrations correspond to the ATP Km value for each individual kinase (Cerep, private communication). In each experiment, a reference compound was tested concurrently with Compound XI and Compound V in order to assess the assay reliability. IC50 values for the reference compounds were within accepted limits (±0.5 log units) of the historic average.

FGFR2 = FGFR2 (Homo sapiens, UniProt P21802); test: Cerep kinase screen; type: biochemical; conditions: read-out: % Inhibition of Control
Procedure: as §6

KDR (VEGFR2) = KDR (VEGFR2) (Homo sapiens, UniProt P35968); test: Cerep kinase screen; type: biochemical; conditions: read-out: % Inhibition of Control
Procedure: as §6

FLT-3 = FLT-3 (Homo sapiens, UniProt P36888); test: Cerep kinase screen; type: biochemical; conditions: read-out: % Inhibition of Control
Sequence of FLT-3 (P36888 27-993, species assumed): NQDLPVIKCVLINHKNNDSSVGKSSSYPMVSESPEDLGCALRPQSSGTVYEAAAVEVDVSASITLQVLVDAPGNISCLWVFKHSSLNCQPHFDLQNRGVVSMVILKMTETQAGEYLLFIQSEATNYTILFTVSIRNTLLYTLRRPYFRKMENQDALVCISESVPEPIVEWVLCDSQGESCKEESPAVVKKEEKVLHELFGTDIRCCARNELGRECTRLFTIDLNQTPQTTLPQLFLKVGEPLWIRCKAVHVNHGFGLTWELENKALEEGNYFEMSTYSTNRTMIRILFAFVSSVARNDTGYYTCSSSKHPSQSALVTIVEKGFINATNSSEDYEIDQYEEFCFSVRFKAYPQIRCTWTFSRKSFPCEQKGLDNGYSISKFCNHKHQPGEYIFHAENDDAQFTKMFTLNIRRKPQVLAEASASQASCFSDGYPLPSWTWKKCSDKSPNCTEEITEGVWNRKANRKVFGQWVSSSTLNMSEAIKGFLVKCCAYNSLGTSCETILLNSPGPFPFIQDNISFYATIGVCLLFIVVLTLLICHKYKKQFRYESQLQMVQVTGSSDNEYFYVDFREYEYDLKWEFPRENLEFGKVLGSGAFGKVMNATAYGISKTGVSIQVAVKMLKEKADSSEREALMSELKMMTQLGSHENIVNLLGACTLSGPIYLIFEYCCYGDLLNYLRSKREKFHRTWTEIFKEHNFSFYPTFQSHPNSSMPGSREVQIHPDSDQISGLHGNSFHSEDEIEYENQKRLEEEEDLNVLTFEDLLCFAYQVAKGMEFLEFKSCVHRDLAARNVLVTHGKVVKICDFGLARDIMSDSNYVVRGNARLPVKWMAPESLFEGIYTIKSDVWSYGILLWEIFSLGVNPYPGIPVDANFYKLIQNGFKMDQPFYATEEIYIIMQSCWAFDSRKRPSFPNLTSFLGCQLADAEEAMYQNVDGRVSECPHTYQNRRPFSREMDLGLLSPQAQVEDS
Procedure: as §6

FLT-1 = FLT-1 (Homo sapiens, UniProt P17948); test: Cerep kinase screen; type: biochemical; conditions: read-out: % Inhibition of Control
Procedure: as §6

PDGFRβ = PDGFRβ (Homo sapiens, UniProt P09619); test: Cerep kinase screen; type: biochemical; conditions: read-out: % Inhibition of Control
Sequence of PDGFRβ (P09619 33-1106, species assumed): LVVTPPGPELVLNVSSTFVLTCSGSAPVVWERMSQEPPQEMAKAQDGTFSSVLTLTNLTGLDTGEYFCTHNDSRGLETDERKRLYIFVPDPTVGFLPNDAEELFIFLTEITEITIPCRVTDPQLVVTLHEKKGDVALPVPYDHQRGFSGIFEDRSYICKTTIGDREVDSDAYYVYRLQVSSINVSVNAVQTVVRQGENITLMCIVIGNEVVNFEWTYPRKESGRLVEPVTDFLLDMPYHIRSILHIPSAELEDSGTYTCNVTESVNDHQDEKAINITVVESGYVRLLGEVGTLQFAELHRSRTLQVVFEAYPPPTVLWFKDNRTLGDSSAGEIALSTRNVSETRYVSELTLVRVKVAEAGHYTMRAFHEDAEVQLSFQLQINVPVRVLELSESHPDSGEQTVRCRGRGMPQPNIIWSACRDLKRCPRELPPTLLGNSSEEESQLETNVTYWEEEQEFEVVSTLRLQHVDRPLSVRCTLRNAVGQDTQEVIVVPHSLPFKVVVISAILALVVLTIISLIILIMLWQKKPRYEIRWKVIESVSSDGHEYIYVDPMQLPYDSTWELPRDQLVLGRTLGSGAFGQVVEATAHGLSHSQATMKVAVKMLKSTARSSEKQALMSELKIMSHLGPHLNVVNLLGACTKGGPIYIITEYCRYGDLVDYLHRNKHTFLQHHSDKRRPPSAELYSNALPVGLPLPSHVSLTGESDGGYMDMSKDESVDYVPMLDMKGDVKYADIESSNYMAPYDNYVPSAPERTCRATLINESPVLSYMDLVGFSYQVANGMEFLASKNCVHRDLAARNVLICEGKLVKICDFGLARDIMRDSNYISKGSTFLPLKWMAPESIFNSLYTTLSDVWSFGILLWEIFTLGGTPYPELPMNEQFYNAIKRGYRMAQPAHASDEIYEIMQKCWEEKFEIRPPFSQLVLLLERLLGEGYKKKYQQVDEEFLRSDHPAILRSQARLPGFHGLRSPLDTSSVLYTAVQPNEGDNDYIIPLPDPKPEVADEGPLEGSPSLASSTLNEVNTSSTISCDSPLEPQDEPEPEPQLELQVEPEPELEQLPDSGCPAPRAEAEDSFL
Procedure: as §6

Lyn = Lyn (Homo sapiens, UniProt P07948); test: Cerep kinase screen; type: biochemical; conditions: read-out: % Inhibition of Control
Sequence of Lyn (P07948 whole entry, species assumed): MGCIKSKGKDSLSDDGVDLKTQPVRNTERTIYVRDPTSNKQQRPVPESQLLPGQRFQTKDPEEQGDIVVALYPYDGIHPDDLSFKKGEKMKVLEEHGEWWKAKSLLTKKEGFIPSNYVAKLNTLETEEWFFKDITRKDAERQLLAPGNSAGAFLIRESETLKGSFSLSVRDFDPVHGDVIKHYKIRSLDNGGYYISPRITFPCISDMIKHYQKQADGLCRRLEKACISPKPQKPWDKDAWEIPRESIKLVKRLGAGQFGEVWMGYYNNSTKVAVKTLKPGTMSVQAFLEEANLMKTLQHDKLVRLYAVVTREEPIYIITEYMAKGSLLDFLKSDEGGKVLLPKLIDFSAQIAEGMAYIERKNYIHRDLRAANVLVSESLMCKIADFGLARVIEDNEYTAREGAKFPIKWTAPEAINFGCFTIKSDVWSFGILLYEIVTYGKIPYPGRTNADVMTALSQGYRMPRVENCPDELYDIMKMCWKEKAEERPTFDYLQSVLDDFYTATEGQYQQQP
Procedure: as §6

C-Met (HGFR) = C-Met (HGFR) (Homo sapiens, UniProt P08581); test: Cerep kinase screen; type: biochemical; conditions: read-out: % Inhibition of Control
Procedure: as §6

FGFR4 = FGFR4 (Homo sapiens, UniProt P22455); test: Cerep kinase screen; type: biochemical; conditions: read-out: % Inhibition of Control
Sequence of FGFR4 (P22455 22-802, species assumed): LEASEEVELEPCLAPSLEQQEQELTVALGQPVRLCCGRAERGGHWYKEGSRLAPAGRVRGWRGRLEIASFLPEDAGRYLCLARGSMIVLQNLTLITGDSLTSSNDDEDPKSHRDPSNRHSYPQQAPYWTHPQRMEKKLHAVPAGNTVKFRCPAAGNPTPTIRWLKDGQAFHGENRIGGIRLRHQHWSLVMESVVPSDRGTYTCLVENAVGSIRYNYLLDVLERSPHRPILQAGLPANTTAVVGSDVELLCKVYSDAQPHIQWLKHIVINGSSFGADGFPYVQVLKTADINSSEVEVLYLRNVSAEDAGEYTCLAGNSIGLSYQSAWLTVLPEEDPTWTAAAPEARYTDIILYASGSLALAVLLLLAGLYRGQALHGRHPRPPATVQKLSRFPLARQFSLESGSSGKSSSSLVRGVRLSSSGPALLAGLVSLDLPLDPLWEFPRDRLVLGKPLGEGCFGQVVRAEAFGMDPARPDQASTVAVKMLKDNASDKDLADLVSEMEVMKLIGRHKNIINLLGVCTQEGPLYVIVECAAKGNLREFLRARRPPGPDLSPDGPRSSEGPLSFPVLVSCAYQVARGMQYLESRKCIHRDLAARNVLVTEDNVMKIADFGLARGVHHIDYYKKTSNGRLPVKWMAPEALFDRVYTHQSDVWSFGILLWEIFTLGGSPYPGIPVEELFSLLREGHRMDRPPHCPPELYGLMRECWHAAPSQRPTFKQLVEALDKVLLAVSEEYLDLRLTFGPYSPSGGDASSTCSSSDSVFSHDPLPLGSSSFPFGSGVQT
Procedure: as §6

Fyn = Fyn (Homo sapiens, UniProt P06241); test: Cerep kinase screen; type: biochemical; conditions: read-out: % Inhibition of Control
Procedure: as §6

CYP2C9 = CYP2C9 (Homo sapiens, UniProt P11712); test: CYP phenotyping, metabolic stability; type: in vitro ADME; conditions: CYP2C9 (10 pm/mL); 1 μM; after 60 minutes
Procedure: (§7) Compounds V and II were exposed to a panel of six CYPs (see Table 5 below).
as §5

CYP2C19 = CYP2C19 (Homo sapiens, UniProt P33261); test: CYP phenotyping, metabolic stability; type: in vitro ADME; conditions: CYP2C19 (10 pm/mL); 1 μM; after 60 minutes
Procedure: as §7, §5

CYP2D6 = CYP2D6 (Homo sapiens, UniProt P10635); test: CYP phenotyping, metabolic stability; type: in vitro ADME; conditions: CYP2D6 (10 pm/mL); 1 μM; after 60 minutes
Procedure: as §7, §5

CYP3A4 = CYP3A4 (Homo sapiens, UniProt P08684); test: CYP phenotyping, metabolic stability; type: in vitro ADME; conditions: CYP3A4 (10 pm/mL); 1 μM; after 60 minutes
Sequence of CYP3A4 (P08684 whole entry, species assumed): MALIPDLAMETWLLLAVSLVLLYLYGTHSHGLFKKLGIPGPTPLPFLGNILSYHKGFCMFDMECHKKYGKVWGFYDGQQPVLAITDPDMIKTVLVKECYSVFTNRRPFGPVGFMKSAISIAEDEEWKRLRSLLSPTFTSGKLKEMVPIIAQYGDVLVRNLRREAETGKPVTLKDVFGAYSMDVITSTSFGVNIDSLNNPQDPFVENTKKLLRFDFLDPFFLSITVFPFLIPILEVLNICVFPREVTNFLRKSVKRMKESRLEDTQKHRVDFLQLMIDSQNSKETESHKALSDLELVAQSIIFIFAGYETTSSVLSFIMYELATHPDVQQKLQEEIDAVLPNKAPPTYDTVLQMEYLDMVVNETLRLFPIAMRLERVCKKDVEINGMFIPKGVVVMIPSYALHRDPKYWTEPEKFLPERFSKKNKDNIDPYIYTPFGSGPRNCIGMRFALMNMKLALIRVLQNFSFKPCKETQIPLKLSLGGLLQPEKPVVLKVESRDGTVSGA
Procedure: as §7, §5

CYP1A2 = target: T1, CYP1A2 (Homo sapiens, UniProt P05177); test: CYP phenotyping, metabolic stability; type: in vitro ADME; conditions: CYP1A2 (40 pm/mL); 1 μM; after 60 minutes
T1 sequence (P05177 1-516): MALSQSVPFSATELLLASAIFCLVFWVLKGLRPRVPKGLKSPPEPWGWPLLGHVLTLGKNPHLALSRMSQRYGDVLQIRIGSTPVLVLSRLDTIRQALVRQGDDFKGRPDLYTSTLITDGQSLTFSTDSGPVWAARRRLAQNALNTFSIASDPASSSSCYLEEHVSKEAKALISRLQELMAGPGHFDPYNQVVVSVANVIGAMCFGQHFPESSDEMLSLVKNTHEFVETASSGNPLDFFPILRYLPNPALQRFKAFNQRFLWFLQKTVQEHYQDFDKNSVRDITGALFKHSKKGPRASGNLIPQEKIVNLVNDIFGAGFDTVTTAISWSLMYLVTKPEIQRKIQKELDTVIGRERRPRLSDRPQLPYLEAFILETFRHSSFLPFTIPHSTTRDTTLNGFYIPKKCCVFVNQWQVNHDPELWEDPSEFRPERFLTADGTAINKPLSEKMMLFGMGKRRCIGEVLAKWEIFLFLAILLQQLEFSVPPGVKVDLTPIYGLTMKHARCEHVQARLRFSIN
Procedure: as §4, §5

[3] = text of b216, read-out: IC50, proliferation of CHO/CYP1B1 cells

SMILES: COc1ccc(-c2cc(-c3ccc4c(c3)OCO4)cc(=O)[nH]2)c(OC)c1 [Compound III]
- IC50 (wild-type CHO cells): 6110 ± 340 nM
- toxicity / activity in CYP1A1 expressing CHO cells (in words) (CHO/CYP1A1 cells): active
- IC50 at 96 h [1]: 950 ± 350 nM
- activity against CHO/CYP1B1 cells (in words) (CHO/CYP1B1 cells): active
- IC50 at 96 h ([2]; 96 h, MTS, read-out: CHO/CYP1B1 IC50): 40 ± 30 nM

SMILES: Cc1ncc2n1-c1ccc(Cl)cc1C(c1ccccc1F)=NC2 [Midazolam, reference compound]
- % Reference Compound Remaining (CYP3A5; reference compound): 1%

SMILES: COc1ccc(-c2cc(-c3ccc4c(c3)OCO4)cc(=O)[nH]2)cc1 [Compound VI]
- toxicity to wild-type CHO cells (in words) (wild-type CHO cells): non toxic
- IC50 (wild-type CHO cells): > 100000 nM
- toxicity / activity in CYP1A1 expressing CHO cells (in words) (CHO/CYP1A1 cells): non toxic
- IC50 at 96 h [1]: > 100000 nM
- activity against CHO/CYP1B1 cells (in words) (CHO/CYP1B1 cells): strongly inhibit proliferation
- IC50 at 96 h [2, 3]: 500 nM

SMILES: COc1ccc(-c2cc(-c3ccc4c(c3)OCO4)cc(=O)[nH]2)cc1OC [Compound V]
- inhibition at 10 µM (CSK): 4%
- inhibition at 10 µM (FGFR2): 13%
- inhibition at 10 µM (KDR (VEGFR2)): 19%
- inhibition at 10 µM (FLT-3): 21%
- inhibition at 10 µM (FLT-1): 11%
- inhibition at 10 µM (PDGFRβ): 7%
- inhibition at 10 µM (Lyn): -1%
- inhibition at 10 µM (C-Met (HGFR)): -5%
- inhibition at 10 µM (FGFR4): -3%
- inhibition at 10 µM (Fyn): 25%
- toxicity to wild-type CHO cells (in words) (wild-type CHO cells): non toxic
- IC50 (wild-type CHO cells): > 100000 nM
- Mean Parent Remaining (%) (CYP2C9): 109%
- Mean Parent Remaining (%) (CYP2C19): 111%
- Mean Parent Remaining (%) (CYP2D6): 100%
- Mean Parent Remaining (%) (CYP3A4): 93%
- toxicity / activity in CYP1A1 expressing CHO cells (in words) (CHO/CYP1A1 cells): non toxic
- IC50 at 96 h [1]: > 100000 nM
- Mean Parent Remaining (%) (CYP3A5; 1 μM, after 60 minutes): 87%
- Mean Parent Remaining (%) (CYP1A2): 71%
- activity against CHO/CYP1B1 cells (in words) (CHO/CYP1B1 cells): strongly inhibit proliferation
- IC50 at 96 h [2, 3]: 80 nM
